According to paper PMC8397291 (2021):

Tests used:
Assay in all cases: competitive native PAGE, 2a staining
Conditions in all cases: 100 mM KCl; TBE; 100 μM competitor with 20 μM c-MYC Pu22; 5 μM 2a
[1] = tested on: TBA (DNA, G4) GGTTGGTGTGGTTGG
[2] = tested on: GC-rich ds-DNA (DNA, duplex) TGAGGGTGGGTAGGGTGGGTAA/TTACCCACCCTACCCACCCTCA
[3] = tested on: s.c. ds-DNA (DNA, duplex) CAATCGGATCGAATTCGATCCGATTG

Measured: binding

CCN(CC)c1ccc2cc(C(=N)N)c(=O)oc2c1
no: all assays above
